Laboratory results as given in publication PMC9587031, “Antibiotic polymyxin arranges lipopolysaccharide into crystalline structures to solidify the bacterial membrane” (Nature Communications, 2022).
In brackets after ≈: the same amount, converted by molar mass. Positions of bridges follow the written chain, without caps; N, C: chain ends. Non-standard residues stand in square brackets, D forms with d. Residues, ends and D or L forms follow the SMILES beside them. *: point of attachment. Heptanoyl(6-Me) = CC(C)CCCCC(=O)*; Dab = NCC[C@H](N)C(=O)O

Assays:
E. coli MG1655 WT = assay: MIC, automated multi-well growth assay; type: cell-based, Escherichia coli; conditions: for MIC: MG1655, 10 h
Method: All titration assays to measure the growth curve of E. coli MG1655 strains at different polymyxin concentrations were performed on a Tecan EVO 200 robotic platform in 96-well plates (cell culture microplates 96 well µClear® CELLSTAR®, Greiner Bio-One GmbH). Plates with serial dilutions of the tested polymyxin derivatives were prepared and overnight cultures of the strains were combined to a final OD600 ≈ 0.05. Titration culture plates were placed in a shaking platform equipped with a Kuhner ES-X shaking module (Adolf Kühner AG) mounted inside an aluminum housing (Tecan) and temperature-controlled using an “Icecube” (Life Imaging Services). Titration cultures were grown for 10 h at 37 °C with shaking at 300 rpm in clear-bottom 96-well plates, which were sealed with peelable foil with small slits (Agilent) to prevent liquid evaporation and guarantee sterility. OD600 measurements were recorded using a Tecan Infinite M200 Pro plater reader.

[1] = tested on: E. coli K-12 MG1655 carrying pAH213_mcr1; assay: Colistin MIC, validation of plasmid pAH213_mcr1; type: cell-based, Escherichia coli
Source text: (§1) In order to confer colistin resistance to the E. coli K-12 MG1655 strain and derivatives, an mcr-1 gene together with its native promoter region was cloned onto the pBR322 plasmid backbone, creating pAH213_mcr1. Briefly, the mcr-1 gene of colistin-resistant E. coli strain 2 HS-C was identified as gene E4F32_22195 on plasmid p2HS-C-1 (GenBank CP038181.1) and amplified together with ≈ 400 nucleotides of its immediate upstream region using primers prAH2159 and prAH2160. The backbone of pBR322 without its tetracycline resistance cassette was amplified using primers prAH1981 and prAH1982. Using 25 bp overhangs to the backbone included in prAH2159 / prAH2160, insert and backbone were ligated using Gibson assembly. The resulting plasmid pAH213_mcr1 confers colistin resistance to the E. coli K-12 MG1655 strain with a minimal inhibitory concentration of 5 µg/ml (empty vector and vector-free controls: 0.5 µg/ml). Robust growth of the E. coli K-12 MG1655 strains carrying pAH213_mcr1 was observed up to a concentration of 3 µg/ml. The plasmids were transferred to the cells using the transformation and storage solution (TSS) method.

[2] = tested on: E. coli K-12 MG1655 empty vector and vector-free controls; assay: Colistin MIC, validation of plasmid pAH213_mcr1, controls; type: cell-based, Escherichia coli
Source text: as §1

E. coli MG1655 MCR-1 = assay: MIC, automated multi-well growth assay; type: cell-based, Escherichia coli; conditions: E. coli MG1655 containing the MCR-1 plasmid, growth curves (Fig. 1b)
Source text: as §1, with “The plasmids were transferred to the cells using the transformation and storage solution (TSS) method.” left out
All titration assays to measure the growth curve of E. coli MG1655 strains at different polymyxin concentrations were performed on a Tecan EVO 200 robotic platform in 96-well plates (cell culture microplates 96 well µClear® CELLSTAR®, Greiner Bio-One GmbH). […] OD600 measurements were recorded using a Tecan Infinite M200 Pro plater reader.

[3] = tested on: OM patches from E. coli MG1655 WT strain; assay: AFM imaging of crystalline structure formation on OM patches; design: species or system Escherichia coli; conditions: DPBS supplemented with 5 mM Mg2+ (MgCl2)
Method: E. coli MG1655 strains were transformed with the pY200 plasmid that carries an mCherry gene preceded by the periplasmic export signal of the skp protein under control of the lux promoter. This construct enables over-expression of mCherry into the periplasmic space, which in turn increases the OMV production. Cultures were grown in LB medium (Difco) with 50 µg/ml spectinomycin (Fischer Scientific) at 37 °C. Expression of mCherry was induced at an OD600 ≈ 0.4 by N-(β ketocaproyl)-L-homoserine lactone (HSL, Cayman Chemical). After induction, the cultures were grown until they reached the early stationary phase, and bacteria were removed by centrifugation at 10,000 g for 10 min. […]
OMVs produced from different E. coli MG1655 strains were adsorbed onto freshly cleaved mica for 15 min in DPBS buffer at room temperature. […] The images were recorded using two different AFM cantilevers: PEAKFORCE‐HiRs‐F‐A (Bruker) with a nominal spring constant of 0.4 N/m, a resonance frequency of ≈ 165 kHz in liquid, and a sharpened silicon tip with a nominal radius of ≈ 1 nm or SCANASYST-FLUID + (Bruker) with a nominal spring constant of 0.7 N/m, a resonance frequency of ≈ 150 kHz in liquid, and a sharpened silicon tip with a nominal radius of ≈ 2 nm. […] Images were recorded at 2 kHz oscillation frequency, by applying an imaging force of 100–120 pN with a vertical amplitude of 30 nm. […]

CC(C)C[C@@H]1NC(=O)[C@@H](CC(C)C)NC(=O)[C@H](CCN)NC(=O)[C@@H](NC(=O)[C@H](CCN)NC(=O)[C@@H](NC(=O)[C@@H](N)CCN)[C@@H](C)O)CCNC(=O)[C@H]([C@@H](C)O)NC(=O)[C@H](CCN)NC(=O)[C@H](CCN)NC1=O [Polymyxin E intermediate-length] (H-[Dab]T[Dab][Dab][Dab][dL]L[Dab][Dab]T; lactam 4-C)
MIC (E. coli MG1655 WT): 8 µg/mL (≈ 7.77 µM)

Polymyxin E
concentration up to which robust growth was observed ([1]; E. coli K-12 MG1655 strains carrying pAH213_mcr1): ≤ 3 µg/mL
minimal inhibitory concentration ([1]; E. coli K-12 MG1655 with plasmid pAH213_mcr1): 5 µg/mL
minimal inhibitory concentration [2]: 0.5 µg/mL
polymyxin E concentration in which the strain was able to grow (E. coli MG1655 MCR-1): 32 mg/L
polymyxin E concentration at which crystalline structures formed [3]: 1.2 mg/L
MIC from bacterial growth curves (E. coli MG1655 WT; E. coli K-12 MG1655 WT, growth curves with increasing antibiotic concentration (Fig. 1b)): 0.5 to 1 µg/mL

CC(C)CCCCC(=O)N[C@@H](CCN)C(=O)N[C@H](C(=O)N[C@@H](CCN)C(=O)N[C@H]1CCNC(=O)[C@@H]([C@H](C)O)NC(=O)[C@H](CCN)NC(=O)[C@H](CCN)NC(=O)[C@H](CC(C)C)NC(=O)[C@@H](CC(C)C)NC(=O)[C@H](CCN)NC1=O)[C@@H](C)O [Polymyxin E with stereochemistry change] ({Heptanoyl(6-Me)}-[Dab]T[Dab][Dab][Dab][dL]L[Dab][Dab][dT]; lactam 4-C)
MIC (E. coli MG1655 WT): 32 µg/mL (≈ 27.7 µM)
